# Patent US20260297105A1, “RAF-MEK PROTEIN COMPLEX MODULATORS AND METHODS OF USE THEREOF” (GANDEEVA THERAPEUTICS, INC., priority 2023, published 2026)
# Experiments:
# [1] = system: BRAF-MEK1; assay: BRAF-MEK TR-FRET assay, stabilization of MEK1 and BRAF interaction; type: binding; details: 4 nM BRAF, 10 nM MEK, 100 μM ATP; 1 hr at 25° C.; read-out: BRAF-MEK TR-FRET Assay (EC50, fold stabilization)
# How it was run: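 Read-out is fold stabilization (treated FRET ratio/DMSO, Em 665/620 nm), fit 4-parameter for EC50 from 2 replicates. Compounds sat with 4 nM GST-BRAF and 10 nM in-house His-MEK1 1 h at 25° C (Tris pH 7.5, MgCl2, 100 μM ATP), then detection antibodies 1 h.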
# [2] = target: T1, MEK1 (Homo sapiens, UniProt Q02750); assay: MEK1 kinase cascade assay (ADP-Glo), inhibition of MEK1 kinase activity; type: biochemical; details: 25 nM BRAF, 6.25 nM MEK1, 0.5 μM ERK, 1 mM ATP; 20 min preincubation, 1 hr at 25° C.; read-out: BRAF ADP Glo kinase assay V3 (IC50)
# T1 construct: purchased SignalChem M02-14H
# How it was run: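 Cascade format with ADP-Glo read-out: BRAF (25 nM) and compound, 1% DMSO, 20 mins at 25° C, then MEK1 6.25 nM, ERK1 0.5 μM, ATP 1 mM for 1 hr at 25° C in HEPES pH 7.5 buffer with MgCl2, CHAPS and DTT. Percent inhibition, scaled between DMSO and 1 μM Trametinib, was fit by 4-parameter logistic to give IC50 (2 replicate wells).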
# [3] = system: NCI-H292 cells; assay: Cell viability assay (CellTiter-Glo), NCI-H292; type: cell-based; details: Homo sapiens, 72 hrs, read-out: Cell Viability Assay: IC50 Determination NCI-H292
# Description: Cell culture: HCTI 16, HT-29, and NCI-H292 cells were acquired from American Type Culture Collection (ATCC). HCT116 and HT-29 cells were maintained in ATCC-formulated McCoy's 5a Medium Modified supplemented with 10% fetal bovine serum, NCI-H292 cells were cultured in ATCC formulated RPMI-1640 supplemented with 10% fetal bovine serum. All cells were maintained at 37° C., 5% CO2.
# Efficacy of exemplary compounds in inhibition of cell viability: HCT116 and HT-29 cells were plated at 4,000 cells per well and NCI-H292 cells were plated at 2,000 cells per well in their respective media in 384-well white, TC-treated plates (Corning). After 24 hours of incubation, the cells were treated with vehicle (DMSO) or test compounds (0.1% DMSO in final volume) for 72 hrs. The plate was equilibrated at room temperature for 10 mins followed by addition of a 1:1 volume of CellTiter-Glo® reagent (Promega). The contents were mixed for 2 mins on an orbital shaker to induce lysis. The plate was incubated at room temperature for 10 mins to stabilize luminescent signal before measuring luminescence on a Cytation5 microplate reader (Agilent). % inhibition as a function of compound concentration from 3 replicate wells was fit with a 4-parameter logistic curve using GraphPad Prism or CDD Vault to derive IC50 values.
# In this table, for the BRAF ADP Glo kinase assay, “A” indicates IC50 of less than 5 nM; “B” indicates IC50 of between 5 nM to 50 nM; and “C” indicates IC50 of between 50 nM to 500 nM. “D” indicates IC50 of greater than 500 nM. For the BRAF-MEK TR-FRET assay, “A” indicates EC50 of less than 50 nM; “B” indicates EC50 of between 50 nM to 200 nM; and “C” indicates EC50 of between 200 nM to 1 μM. “D′” indicates EC50 of greater than 1 μM. For the AlphaLisa P-ERK assay, “A” indicates IC50 of less than 1 nM; “B” indicates IC50 of between 1 nM to 10 nM; and “C” indicates IC50 of between 10 nM to 100 nM. “D” indicates IC50 of greater than 100 nM. For the cell viability assay, “A” indicates IC50 of less than 1 nM; “B” indicates IC50 of between 1 nM to 10 nM; and “C” indicates IC50 of between 10 nM to 100 nM. “D” indicates IC50 of greater than 100 nM.
# T1 sequence (Q02750 whole entry): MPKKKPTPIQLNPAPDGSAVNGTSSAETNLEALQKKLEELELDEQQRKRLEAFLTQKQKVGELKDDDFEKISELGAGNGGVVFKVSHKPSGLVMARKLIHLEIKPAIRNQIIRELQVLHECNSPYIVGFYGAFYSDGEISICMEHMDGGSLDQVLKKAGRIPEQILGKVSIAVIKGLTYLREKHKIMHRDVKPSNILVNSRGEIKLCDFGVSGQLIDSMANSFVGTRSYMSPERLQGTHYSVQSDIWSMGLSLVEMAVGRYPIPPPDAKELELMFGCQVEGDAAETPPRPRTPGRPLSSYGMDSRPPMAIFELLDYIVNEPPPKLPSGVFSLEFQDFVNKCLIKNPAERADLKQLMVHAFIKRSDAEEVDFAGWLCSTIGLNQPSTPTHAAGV
# T1 sequence (P15056 445-723 partner limits assumed): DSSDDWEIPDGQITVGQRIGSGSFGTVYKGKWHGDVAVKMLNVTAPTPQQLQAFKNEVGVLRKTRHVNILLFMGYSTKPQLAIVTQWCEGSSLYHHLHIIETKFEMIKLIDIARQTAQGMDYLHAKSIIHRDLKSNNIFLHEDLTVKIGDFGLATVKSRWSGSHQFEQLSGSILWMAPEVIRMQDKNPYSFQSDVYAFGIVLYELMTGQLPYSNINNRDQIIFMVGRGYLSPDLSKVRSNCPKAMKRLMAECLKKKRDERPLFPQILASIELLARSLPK
compound,measurement,setting,value
"[2H]C1([2H])c2ccc(Oc3cccnn3)cc2OC(=O)N1Cc1cccc(NS(=O)(=O)N(C)C)c1F [Compound 39, 3-{[3-(dimethylaminosulfonylamino)-2-fluorophenyl]methyl}-7-(3-pyridazinyloxy)(4,4-^2H2)-3,4-dihydro-2H-1,3-benzoxazin-2-one]",EC50,[1],< 0.05 µM
same,IC50,[2],0.005 to 0.05 µM
same,IC50,[3],0.001 to 0.01 µM
"CNS(=O)(=O)Nc1cccc(CN2C(=O)Oc3cc(Oc4ncco4)ccc3C2(C)C)c1F [Compound 74, 3-({2-fluoro-3-[(methylsulfamoyl)amino]phenyl}methyl)-4,4-dimethyl-7-(1,3-oxazol-2-yloxy)-3,4-dihydro-2H-1,3-benzoxazin-2-one]",IC50,[2],0.005 to 0.05 µM
same,IC50,[3],0.001 to 0.01 µM
"CNS(=O)(=O)Nc1cccc(CN2Cc3ccc(Oc4ncccn4)c(F)c3OC2=O)c1F [Compound 123, 8-fluoro-3-{[2-fluoro-3-(methylaminosulfonylamino)phenyl]methyl}-7-(2-pyrimidinyloxy)-3,4-dihydro-2H-1,3-benzoxazin-2-one]",EC50,[1],0.2 to 1 µM
same,IC50,[2],0.005 to 0.05 µM
same,IC50,[3],0.01 to 0.1 µM
"C[C@@H]1c2ccc(Oc3cccnn3)c(F)c2OC(=O)N1Cc1cccc(NS(=O)(=O)N(C)C)c1F (single isomer, unassigned) [Compound 43]",EC50,[1],< 0.05 µM
same,IC50,[2],< 0.005 µM
same,IC50,[3],0.001 to 0.01 µM
"CNS(=O)(=O)Nc1nccc(CN2C(=O)Oc3cc(Oc4ncco4)cc(F)c3C23CCC3)c1F [Compound 169, 5-fluoro-3-{[3-fluoro-2-(methylaminosulfonylamino)-4-pyridyl]methyl}-7-(1,3-oxazol-2-yloxy)-2H,3H-spiro[1,3-benzoxazine-4,1′-cyclobutan]-2-one]",EC50,[1],< 0.05 µM
same,IC50,[2],0.005 to 0.05 µM
same,IC50,[3],0.001 to 0.01 µM
"CNS(=O)(=O)Nc1cccc(CN2C(=O)Oc3cc(Oc4ncco4)ccc3[C@H]2C)c1F (single isomer, unassigned) [Compound 79, (R)-3-({2-fluoro-3-(methylsulfamoyl)amino]phenyl}methyl)-4-methyl-7-(1,3-oxazol-2-yloxy)-3,4-dihydro-2H-1,3-benzoxazin-2-one or (S)-3-({2-fluoro-3-(methylsulfamoyl)amino]phenyl}methyl)-4-methyl-7-(1,3-oxazol-2-yloxy)-3,4-dihydro-2H-1,3-benzoxazin-2-one]",IC50,[2],0.005 to 0.05 µM
same,IC50,[3],0.01 to 0.1 µM
"O=C1Oc2cc(Oc3ncco3)ccc2C2(CCC2)N1Cc1ccnc(NS(=O)(=O)C2CC2)c1F [Compound 167, (cyclopropylsulfonyl)[3-fluoro-4-({7-(1,3-oxazol-2-yloxy)-2-oxo-2H,3H-spiro[1,3-benzoxazine-4,1′-cyclobutan]-3-yl}methyl)-2-pyridyl]amine]",EC50,[1],0.05 to 0.2 µM
same,IC50,[2],0.005 to 0.05 µM
same,IC50,[3],0.01 to 0.1 µM
"CNS(=O)(=O)Nc1cccc(CN2C(=O)Oc3cc(Oc4ncco4)ccc3[C@@H]2C)c1F (single isomer, unassigned) [Compound 78, (S)-3-({2-fluoro-3-(methylsulfamoyl)amino]phenyl}methyl)-4-methyl-7-(1,3-oxazol-2-yloxy)-3,4-dihydro-2H-1,3-benzoxazin-2-one or (R)-3-({2-fluoro-3-(methylsulfamoyl)amino]phenyl}methyl)-4-methyl-7-(1,3-oxazol-2-yloxy)-3,4-dihydro-2H-1,3-benzoxazin-2-one]",EC50,[1],0.2 to 1 µM
same,IC50,[2],0.005 to 0.05 µM
same,IC50,[3],0.01 to 0.1 µM
"CNS(=O)(=O)Nc1cccc(CN2C(=O)Oc3cc(Oc4cccnn4)cc(F)c3[C@@H]2C)c1F (single isomer, unassigned) [Compound 56]",EC50,[1],0.2 to 1 µM
same,IC50,[2],0.005 to 0.05 µM
same,IC50,[3],0.01 to 0.1 µM
"CN(C)C(=O)Oc1ccc2c(c1)OC(=O)N(Cc1cccc(NS(=O)(=O)C3CC3)c1F)C2 [Compound 125, 3-(3-(cyclopropanesulfonamido)-2-fluorobenzyl)-2-oxo-3,4-dihydro-2H-benzo[e][1,3]oxazin-7-yl dimethylcarbamate]",EC50,[1],0.2 to 1 µM
same,IC50,[2],0.005 to 0.05 µM
same,IC50,[3],0.01 to 0.1 µM
"O=C1Oc2c(ccc(Oc3ncco3)c2F)C2(CCC2)N1Cc1ccnc(NS(=O)(=O)C2CC2)c1F [Compound 183, (cyclopropylsulfonyl)[3-fluoro-4-({8-fluoro-7-(1,3-oxazol-2-yloxy)-2-oxo-2H,3H-spiro[1,3-benzoxazine-4,1′-cyclobutan]-3-yl}methyl)-2-pyridyl]amine]",EC50,[1],0.2 to 1 µM
same,IC50,[2],0.05 to 0.5 µM
"CNS(=O)(=O)Nc1cccc(CN2C(=O)Oc3c(ccc(OC(=O)N(C)C)c3F)[C@H]2C)c1F (single isomer, unassigned) [Compound 104, (R)-8-fluoro-3-(2-fluoro-3-((N-methylsulfamoyl)amino)benzyl)-4-methyl-2-oxo-3,4-dihydro-2H-benzo[e][1,3]oxazin-7-yl dimethylcarbamate or (S)-8-fluoro-3-(2-fluoro-3-((N-methylsulfamoyl)amino)benzyl)-4-methyl-2-oxo-3,4-dihydro-2H-benzo[e][1,3]oxazin-7-yl dimethylcarbamate]",EC50,[1],0.2 to 1 µM
same,IC50,[2],0.005 to 0.05 µM
"CNS(=O)(=O)Nc1cccc(CN2C(=O)Oc3cc(Oc4ncco4)cc(F)c3[C@@H]2C)c1F (single isomer, unassigned) [Compound 86, (S)-5-fluoro-3-({2-fluoro-3-(methylsulfamoyl)amino]phenyl}methyl)-4-methyl-7-(1,3-oxazol-2-yloxy)-3,4-dihydro-2H-1,3-benzoxazin-2-one or (R)-5-fluoro-3-({2-fluoro-3-(methylsulfamoyl)amino]phenyl}methyl)-4-methyl-7-(1,3-oxazol-2-yloxy)-3,4-dihydro-2H-1,3-benzoxazin-2-one]",EC50,[1],0.2 to 1 µM
same,IC50,[2],0.005 to 0.05 µM
"CNS(=O)(=O)Nc1cccc(CN2C(=O)Oc3cc(OC(=O)N(C)C)ccc3[C@@H]2C)c1F [Compound 152, 3-(2-fluoro-3-((N-methylsulfamoyl)amino)benzyl)-4-methyl-2-oxo-3,4-dihydro-2H-benzo[e][1,3]oxazin-7-yl dimethylcarbamate]",EC50,[1],0.2 to 1 µM
same,IC50,[2],0.005 to 0.05 µM
"CNS(=O)(=O)Nc1cccc(CN2C(=O)Oc3cc(OC(=O)N(C)C)c(Cl)cc3[C@H]2C)c1F [Compound 107, (R)-6-chloro-7-(dimethylaminocarbonyloxy)-3-{[2-fluoro-3-(methylaminosulfonylamino)phenyl]methyl}-4-methyl-3,4-dihydro-2H-1,3-benzoxazin-2-one]",EC50,[1],0.2 to 1 µM
same,IC50,[2],0.005 to 0.05 µM
"O=C1Oc2c(ccc(Oc3cccnn3)c2F)C2(CCC2)N1Cc1ccnc(NS(=O)(=O)C2CC2)c1F [Compound 184, (cyclopropylsulfonyl)[3-fluoro-4-({8-fluoro-2-oxo-7-(3-pyridazinyloxy)-2H,3H-spiro[1,3-benzoxazine-4,1′-cyclobutan]-3-yl}methyl)-2-pyridyl]amine]",EC50,[1],0.05 to 0.2 µM
same,IC50,[2],0.05 to 0.5 µM
CNS(=O)(=O)Nc1cccc(CN2C(=O)Oc3cc(Oc4ncco4)c(F)cc3C23COC3)c1F [Compound 73],IC50,[2],0.005 to 0.05 µM
same,IC50,[3],0.001 to 0.01 µM
"CNS(=O)(=O)Nc1nccc(CN2C(=O)Oc3cc(Oc4cccnn4)ccc3C23COC3)c1F [Compound 24, 3-({3-fluoro-2-[(methylsulfamoyl)amino]pyridin-4-yl}methyl)-7-(pyridazin-3-yloxy)-2,3-dihydrospiro[1,3-benzoxazine-4,3′-oxetan]-2-one]",EC50,[1],0.05 to 0.2 µM
same,IC50,[2],0.005 to 0.05 µM
